Converted amounts (≈) assume the structure as drawn.

This note sets out measurements from US20070179137A1, “Screening of anti-viral drugs and pharmaceuticals composition containing thiazolidinone derivatives” (priority 2004, published 2007).

For data set [1], the system named is heparin. The data set is described as follows: Direct interaction of inhibitor compounds with immobilized heparin (pre-incubation versus co-incubation with GBVP). It counts as binding. The settings on record: for Inhibition (%) Co-incubation: GBVP co-incubated with compound for 90 min in control wells; for Inhibition (%) Pre-Incubation: compound pre-incubated with immobilized heparin 90 min, washed, then GBVP added. As to the method: Compounds found to be suitable for further development and chemical optimization may be further subjected to a second screening, identifying those that directly bind to heparin. Individual compounds are incubated with immobilized heparin in the absence of CMV envelope glycoprotein B. After washing of the plates to remove all unbound compound, CMV envelope glycoprotein B is added. At this time, in separate wells, CMV envelope glycoprotein B is co-incubated with the test compounds and the standard assay protocol is followed. Test compounds which bind directly and irreversibly to heparin are identified by comparing the results of pre-incubation versus co-incubation experiments.
96-well ELISA plates are coated with Heparin-BSA, then blocked with BSA as described in Example 1. GBVP Hit Compounds, at final concentration 0.1-200 μM, are incubated in the ELISA plate for 90 min, and then washed with incubation buffer. After washing, GBVP is added to the wells pre-incubated with compounds. At the same time, in separate control wells, GBVP is co-incubated with Hit Compounds for 90 min. Following the incubation, GBVP bound to the plate is quantified by antibody conjugated to horse radish peroxidase and OD measurement as described in Example 1.

Data set [2] deals with Varicella Zoster Virus (VZV). The data set is described as follows: Cytopathic effect (CPE) inhibition assay on Varicella Zoster Virus in HFF cells. It counts as cell-based. The conditions noted are these: Human alphaherpesvirus 3, HFF, 240 h, ten days incubation. Here is the method: Cytopathic effect (CPE) inhibition assays were performed on Varicella Zoster Virus (VZV) as follows. Low passage human foreskin fibroblast (HFF) cells were seeded into 96-well tissue culture plates 24 hours prior to use at a cell concentration of 2.5×10^5 cells per ml in 0.1 ml of MEM supplemented with 10% FBS. The cells were then incubated for 24 hours at 37° C. in a C02 incubator. After incubation, the medium was removed and 125 μl of candidate drug in growth medium (MEM with 10% FBS) was added to the first row in triplicate wells, all other wells containing 100 μl of media. The drug in the first row of wells was then diluted serially 1:5 throughout the remaining wells by transferring 25 μl using the Cetus liquid handling machine. After dilution of drug, 100 μl growth medium containing virus (2500 PFU per well) was added to each well, excluding cell control wells, which received 100 μl of growth medium only. The plates were then incubated at 37° C. in a CO2 incubator for ten days. After the incubation period, media was aspirated and the cells stained with a 0.1% crystal violet solution for four hours. The stain was then removed and the plates rinsed using tap water until all excess stain was removed. The plates were allowed to dry for 24 hours and then read on a BioTek plate reader at 620 nm. […]

The nature of data set [3]: Neutral red uptake cytotoxicity assay. The conditions noted are these: human.
Data set [4] concerns bovine viral diarrhea virus. Put plainly: Inhibition of bovine viral diarrhea virus in MDBK cells. The data set is classed as cell-based. An excerpt:
(§1) Bovine viral diarrhea virus is related to HCV and may serve as a surrogate model for human hepatitis C virus (Yanagida K., et al., ibid).

Data set [5] is described as follows: Cytotoxicity in MDBK cells (IC50 used for SI). It counts as cell-based. The settings on record: bovine, MDBK (Madin-Darby bovine kidney) cells, value paired with EC50 to give SI.
From the text: as §1

The target in data set [6] is T1, CMV envelope glycoprotein B binding to immobilized heparin (Human cytomegalovirus, UniProt P06473).
T1 construct: purchased Research Diagnostics, INC; RDI-RCMVAG-B
T1 sequence (P06473 32-906): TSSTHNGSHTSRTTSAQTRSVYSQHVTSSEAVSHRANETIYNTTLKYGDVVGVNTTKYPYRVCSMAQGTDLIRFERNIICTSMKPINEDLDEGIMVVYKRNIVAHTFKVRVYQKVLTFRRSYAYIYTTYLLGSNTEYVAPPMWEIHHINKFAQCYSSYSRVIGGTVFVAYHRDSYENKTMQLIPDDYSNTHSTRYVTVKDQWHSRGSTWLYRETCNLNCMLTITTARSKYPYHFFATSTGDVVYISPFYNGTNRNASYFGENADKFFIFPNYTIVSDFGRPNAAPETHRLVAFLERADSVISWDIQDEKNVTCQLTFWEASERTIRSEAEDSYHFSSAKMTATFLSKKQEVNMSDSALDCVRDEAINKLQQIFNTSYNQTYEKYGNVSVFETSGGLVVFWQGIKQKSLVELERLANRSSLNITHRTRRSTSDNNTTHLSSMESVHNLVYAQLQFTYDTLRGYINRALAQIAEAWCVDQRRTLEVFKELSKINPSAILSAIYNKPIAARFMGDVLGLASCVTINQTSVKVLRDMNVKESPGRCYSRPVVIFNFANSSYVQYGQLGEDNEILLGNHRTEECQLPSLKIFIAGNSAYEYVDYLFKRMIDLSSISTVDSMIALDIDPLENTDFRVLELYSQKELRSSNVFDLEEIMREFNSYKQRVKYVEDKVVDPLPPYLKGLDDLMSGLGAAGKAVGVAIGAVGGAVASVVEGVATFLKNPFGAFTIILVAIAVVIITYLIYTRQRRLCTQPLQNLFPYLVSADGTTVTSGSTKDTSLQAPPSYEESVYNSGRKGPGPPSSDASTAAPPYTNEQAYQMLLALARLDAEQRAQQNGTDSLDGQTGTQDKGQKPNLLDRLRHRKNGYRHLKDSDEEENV
The data set is described as follows: Inhibition of CMV envelope glycoprotein B binding to immobilized heparin by soluble heparin. The conditions noted are these: soluble heparin 0.2-10 mg/ml, FIG. 2. An excerpt: The present invention discloses for the first time the use of CMV envelope glycoprotein B for compound screening and for direct targeting of GAG binding sites. The screening method of the present invention is based on an ELISA assay for CMV envelope glycoprotein B interaction with heparin on 96-well plates, suitable for screening compound collections, newly developed by the inventors of the present invention. The assay measures binding of CMV envelope glycoprotein B to immobilized heparin. The amount of bound CMV envelope glycoprotein B is determined by an ELISA assay using a monoclonal antibody conjugated to horseradish peroxidase. […] Soluble heparin was found according to the present invention to inhibit CMV envelope glycoprotein B binding to immobilized heparin (FIG. 2). This method can be used with other specific GBVPs such as HSV-1 glycoproteins B, C, and D, HHV-7 glycoprotein B, and HCV envelope protein. Additionally, other GAGs are capable of replacing heparin in this kind of assay. […]
Porcine intestinal mucosa heparin conjugated to Bovine Serum Albumin (Heparin-BSA; Sigma Cat. No. H0403) at 5 mg/ml in Phosphate Buffered Saline (PBS; pH 6.5) was added to a 96-well polystyrene ELISA plate (NLNC Cat. No. 442404; 0.1 ml per well) and incubated over night at 4° C. […] The Optical Density (OD) of the samples was measured at 450 nm using an ELISA plate reader (Dynatech MR5000).

The EC50 is the concentration needed to bring the measured effect to its halfway point. Low readings indicate greater potency, high ones weaker potency. For orientation: CC50 means the concentration at which the toxic effect on the cells reaches its halfway point. Low readings indicate harm at low concentration, high ones better tolerance by the cells. With `CCCCN1C(=O)/C(=C/c2c(N3CCN(C)CC3)nc3c(C)cccn3c2=O)SC1=S` [Compound 10, 4H-Pyrido[1,2-a]pyrimidin-4-one, 3-[(3-butyl-4-oxo-2-thioxo-5-thiazol-idinylidene)methyl]-9-methyl-2-(4-methyl-1-piperazinyl)-], in data set [1], the “Inhibition (%) Co-incubation” value is on record as 80% and the “Inhibition (%) Pre-Incubation” value is listed as 73%. Also, the response in data set [2] was half-maximal at 3.2 µg/mL (≈ 6.99 µM) (EC50). The compound further returned a CC50 at 7 days in data set [3] of 11.8 µg/mL (≈ 25.8 µM).

Broadly, the IC50 is the midpoint of a concentration-inhibition curve. Low readings indicate greater potency in that assay, high ones weaker potency in that assay. In data set [4], `Cc1cccn2c(=O)c(C=C3SC(=S)N(Cc4ccccc4)C3=O)c(NCCN3CCOCC3)nc12` [Compound 26, 4H-Pyrido[1,2-a]pyrimidin-4-one, 3-[[3-(phenylmethyl)-4-oxo-2-thioxo-5-thiazolidinylidene]methyl]-2-[[2-(4-morpholinyl)ethyl]amino]-9-methyl-] registered an SI above 17. This compound had an EC50 in data set [4] (Bovine viral diarrhea virus isolates and strains) of 6 µM. The compound also displayed an IC50 in data set [5] above 100 µM.

On to `Cc1ccc2nc(N3CCN(C)CC3)c(C=C3SC(=S)N(Cc4ccccc4)C3=O)c(=O)n2c1` [Compound 5, 4H-Pyrido[1,2-a]pyrimidin-4-one, 3-[(3-phenylmethyl-4-oxo-2-thioxo-5-thiazolidinylidene)methyl]-2-(4-methyl-1-piperazinyl)-7-methyl-], for which, in data set [1], the “Inhibition (%) Co-incubation” value amounted to 66% and the “Inhibition (%) Pre-Incubation” value came to 68%.

For heparin [Soluble heparin], in data set [6], the “Inhibition of CMV envelope glycoprotein B binding to immobilized heparin” value is reported as “inhibit”.

On to `O=C(CN1C(=O)C(=C2SC(=S)N(CCS(=O)(=O)O)C2=O)c2ccccc21)Nc1cccc(C(F)(F)F)c1` [Compound 11, 5-[1,2-dihydro-2-oxo-1-[2-oxo-2-[[3-(trifluoromethyl)phenyl]amino]ethyl]-3H-indol-3-ylidene]-4-oxo-2-thioxo-3-thiazolidineethanesulfonic acid], for which the EC50 in data set [2] was below 0.03 µg/mL. In data set [3], this compound had a half-maximal cytotoxic concentration (CC50) at 7 days above 100 µg/mL.

On to `O=C1C(=Cc2c(NCCCn3ccnc3)nc3ccccn3c2=O)SC(=S)N1Cc1ccccc1` [Compound 25, 4H-Pyrido[1,2-a]pyrimidin-4-one, 3-[(3-phenylmethyl-4-oxo-2-thioxo-5-thiazolidinylidene)methyl]-2-[[3-(1H-imidazol-1-yl)propyl]amino]-], for which, in data set [1], the “Inhibition (%) Co-incubation” value is 67% and the “Inhibition (%) Pre-Incubation” value is on record as 89%.
